Assay results as given in PubChem BioAssay (NCI).
Where “and” joins values, the source holds several entries; their conditions need not be identical. Equal entries are not always repeated.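 Dose response: 5 concentrations. Exposure: 48 h. Format: 96-well plates. Endpoint: linear interpolation; highest concentration if not reached. GI50 = concentration required for 50% inhibition of growth. The concentration for full growth arrest is given as TGI.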

Key:
Test in all cases: growth of human tumour cells (NCI), 48 h
K-562 leukemia = tested on: K-562 leukemia
RXF 393 renal = tested on: RXF 393 renal
HCT-15 colon = tested on: HCT-15 colon
OVCAR-8 ovarian = tested on: OVCAR-8 ovarian
SK-MEL-28 melanoma = tested on: SK-MEL-28 melanoma
OVCAR-5 ovarian = tested on: OVCAR-5 ovarian
SK-MEL-5 melanoma = tested on: SK-MEL-5 melanoma
T-47D breast = tested on: T-47D breast
UACC-257 melanoma = tested on: UACC-257 melanoma
NCI-H226 lung = tested on: NCI-H226 lung

Compound | TGI (K-562 leukemia) | TGI (RXF 393 renal) | TGI (HCT-15 colon) | TGI (OVCAR-8 ovarian) | TGI (SK-MEL-28 melanoma) | GI50 (K-562 leukemia) | GI50 (RXF 393 renal) | GI50 (HCT-15 colon) | GI50 (OVCAR-5 ovarian) | TGI (OVCAR-5 ovarian) | GI50 (OVCAR-8 ovarian) | GI50 (SK-MEL-28 melanoma) | GI50 (SK-MEL-5 melanoma) | TGI (SK-MEL-5 melanoma) | GI50 (T-47D breast) | TGI (T-47D breast) | TGI (UACC-257 melanoma) | TGI (NCI-H226 lung) | GI50 (UACC-257 melanoma)
CC(=O)O[C@H]1CC2C=CC3C(CCC31)O2 (stereo not given in full) | > 100 µM | > 100 µM | > 100 µM | > 100 µM | > 100 µM |  |  |  |  |  |  |  |  |  |  |  |  |  | 
CCCCCCCC(=O)[O][Hg][CH2]C1COC([CH2][Hg][O]C(=O)CCCCCCC)CO1 (stereo not given) | > 100 µM | 32.5 µM | 26.2 µM | 40.1 µM | 27 µM | 2.09 µM | 18.5 µM | 9.54 µM | 20.1 µM | 34.3 µM | 19.8 µM | 14 µM | 11 µM | 28.8 µM | 13.1 µM | 46.9 µM |  |  | 
O=[N+]([O-])c1cc2c([N+](=O)[O-])cccc2o1 |  | 20 µM | 23 µM | 38.8 µM | 16.8 µM |  |  |  |  |  |  |  |  | 33.2 µM |  | > 100 µM | 21.8 µM | 30.4 µM | 
CC1(C)N=C(N)N=C(N)N1c1cccc(Br)c1 | > 100 µM | > 100 µM | > 100 µM | > 100 µM | > 100 µM | 0.0597 µM | > 23.1 µM | 1.42 µM |  |  | 0.228 µM | 14 µM | 1.03 µM | > 100 µM | > 82.7 µM | > 100 µM | > 100 µM | > 100 µM | > 92.4 µM
Fc1ccc(Nc2nc3ccccc3c3occc23)cc1 | > 100 µM | 31.5 µM | 21.4 µM | 31.5 µM | 16.6 µM | 3.66 µM | 12.6 µM | 9.58 µM | 10.1 µM | 21.8 µM | 11.2 µM | 2.45 µM | 16.5 µM | 30.1 µM | 0.135 µM |  | 28.3 µM |  | 13.8 µM
COc1ccc(CCc2cc(OC)c(O)c(OC)c2)cc1 | > 100 µM |  |  | > 100 µM | 58.8 µM |  |  |  |  | > 100 µM |  |  |  | > 100 µM |  |  | 91.6 µM | > 100 µM | 
c1ccc2c(NCCCCCCNc3cccc4ccccc34)cccc2c1 | > 100 µM |  | > 100 µM | > 100 µM | > 100 µM |  |  |  |  | > 100 µM |  |  |  | > 100 µM |  |  | > 100 µM | > 100 µM | 
COC(=O)C(=O)C(C(=O)C(=O)Nc1cc(C)ccc1C)c1nc2ccc(C(=O)c3ccccc3)cc2[nH]c1=O (stereo not given) | > 100 µM | > 100 µM | > 100 µM | > 100 µM |  |  |  |  |  | > 100 µM |  |  |  | > 100 µM |  |  | > 100 µM | > 100 µM | 
c1ccc(N/N=C2\NN=C(c3ccccc3)CS2)cc1 | 25.8 µM | 25.1 µM | 20.9 µM | 19.7 µM | 36.6 µM |  |  |  |  | 41.8 µM |  |  |  |  |  |  | 41.4 µM | > 100 µM | 
CCCCCCCCCCCCCB(O)O |  | > 100 µM and 73.7 µM | > 100 µM | > 100 µM | > 100 µM |  | > 100 µM and 29.5 µM | > 100 µM and 49.3 µM |  | > 100 µM |  |  | > 100 µM and 45.4 µM | > 100 µM |  |  | > 100 µM | > 100 µM | 
